Drawing on ChEMBL document CHEMBL5728596, “Inhibitors of cysteine proteases and methods of use thereof” (2021), this text covers EC50 for 23 molecules.

Usually EC50 stands for the midpoint of the concentration-response curve.

This assay is described as follows: Evaluation of Antiviral Activity of Compounds Against Human Coronavirus (HCov) 229E and OC43 in the Cytopathic Effect (CPE) Assays: Compounds were assayed using standard methods against multiple coronaviral strains, including HCoV 229E and OC43 strains. […] The antiviral activity of compounds was calculated based on the protection of the virus-induced CPE at each concentration normalized by the virus control.

As to `COc1cccc2[nH]c(C(=O)N[C@@H](CC(C)C)C(=O)NC(C#N)c3cccnc3)cc12` (stereo partly drawn), the EC50 was 6 µM.

Consider `COc1cccc2[nH]c(C(=O)N[C@@H](CC(C)C)C(=O)N[C@@H](C[C@@H]3CCNC3=O)C(C#N)NCC(=O)O)cc12` (stereo partly drawn), for which the 50% effective concentration (EC50) is < 22 µM.

Turning to `CCCN1C(=N)C([C@H](C[C@@H]2CCNC2=O)NC(=O)[C@H](CC(C)C)NC(=O)c2cc3c(OC)cccc3[nH]2)OC1=O` (stereo partly drawn), the EC50 is > 30 µM.

For `N#C[C@H](C[C@@H]1CCNC1=O)NC(=O)[C@H](CC1CC1)NC(=O)c1cc2cccc(Cl)c2[nH]1`, the half-maximal effective concentration (EC50) was < 22 µM.

Consider `COc1cccc2[nH]c(C(=O)N[C@@H](CC(C)(C)C)C(=O)N[C@H](C#N)C[C@@H]3CCCNC3=O)cc12`, for which the concentration giving a half-maximal response (EC50) is < 22 µM.

Turning to `COc1cccc2[nH]c(C(=O)N[C@@H](CC(C)C)C(=O)N[C@H](/C=C/S(C)(=O)=O)C[C@@H]3CCNC3=O)cc12`, the EC50 is > 30 µM.

For `N#C[C@H](C[C@@H]1CCNC1=O)NC(=O)[C@H](CC1CC1)NC(=O)c1cc2cc(Cl)ccc2[nH]1`, the concentration giving a half-maximal response (EC50) is < 22 µM.

Regarding `CC(C)C[C@H](NC(=O)c1cc2c(OC(F)F)cccc2[nH]1)C(=O)N[C@H](C#N)C[C@@H]1CCNC1=O`, the EC50 is < 22 µM.

Take `COc1cccc2[nH]c(C(=O)N[C@@H](CC(C)C)C(=O)N[C@H](C#N)C[C@@H]3CCNC3=O)cc12`: the EC50 is < 22 µM.

Consider `COc1cccc2[nH]c(C(=O)N[C@@H](CC3CCC3)C(=O)N[C@H](C#N)C[C@@H]3CCNC3=O)cc12`, for which the EC50 was < 22 µM.

Turning to `COc1cccc2[nH]c(C(=O)N[C@@H](CC(C)C)C(=O)N[C@@H](C[C@@H]3CCNC3=O)C(C#N)Nc3ccccc3)cc12` (stereo partly drawn), the EC50 was 6 µM.

Turning to `COc1cccc2[nH]c(C(=O)N3C[C@H](OC)C[C@H]3C(=O)N[C@H](C#N)C[C@@H]3CCNC3=O)cc12`, the EC50 was < 22 µM.

`CCCOc1cccc2[nH]c(C(=O)N[C@@H](CC(C)C)C(=O)N[C@H](C#N)C[C@@H]3CCNC3=O)cc12`: the EC50 was < 22 µM.

Consider `CC(C)C[C@H](NC(=O)c1nc2ncccc2[nH]1)C(=O)N[C@H](C#N)C[C@@H]1CCNC1=O`, for which the EC50 was 6 µM.

`COc1cccc2[nH]c(C(=O)N3C[C@H](SC)C[C@H]3C(=O)N[C@H](C#N)C[C@@H]3CCNC3=O)cc12`: the 50% effective concentration (EC50) was 6 µM.

In the case of `COc1cccc2[nH]c(C(=O)N3C[C@@H](C45CC(C4)C5)C[C@H]3C(=O)N[C@H](C#N)C[C@@H]3CCNC3=O)cc12` (single isomer, unassigned), the 50% effective concentration (EC50) was < 22 µM.

For the molecule `COc1cccc2[nH]c(C(=O)N[C@@H](CC(C)C)C(=O)N[C@@H](C[C@@H]3CCNC3=O)[C@@H](C#N)N3CCCC3)cc12` (single isomer, unassigned), the half-maximal effective concentration (EC50) is < 22 µM.

Take `N#C[C@H](C[C@@H]1CCCNC1=O)NC(=O)C1CC2(CN1C(=O)c1cc3cccc(Cl)c3[nH]1)CC(F)(F)C2` (single isomer, unassigned): the concentration for a half-maximal effect (EC50) was < 22 µM.

For the molecule `N#C[C@H](C[C@@H]1CCCNC1=O)NC(=O)[C@@H]1CC2(CCCCC2)CN1C(=O)c1cc2ccc(Cl)cc2[nH]1` (single isomer, unassigned), the EC50 was < 22 µM.

Turning to `COc1cccc2[nH]c(C(=O)N[C@@H](CC(C)C)C(=O)N[C@@H](C[C@@H]3CCNC3=O)[C@H](C#N)N3CCCC3)cc12` (single isomer, unassigned), the EC50 is < 22 µM.

`COc1cccc2[nH]c(C(=O)N[C@@H](CC(C)(F)F)C(=O)N[C@H](C#N)C[C@@H]3CCNC3=O)cc12` (single isomer, unassigned): the half-maximal effective concentration (EC50) is < 22 µM.

`COc1cccc2[nH]c(C(=O)N3C[C@H](C45CC(C4)C5)C[C@H]3C(=O)N[C@H](C#N)C[C@@H]3CCNC3=O)cc12` (single isomer, unassigned): the EC50 is < 22 µM.

Turning to `N#C[C@H](C[C@@H]1CCCNC1=O)NC(=O)C1CC2(CCCCC2)CN1C(=O)c1cc2cccc(Cl)c2[nH]1` (single isomer, unassigned; isomer 1), the EC50 was < 22 µM.
